Tests used:
[1] = target: LXRβ (Homo sapiens, UniProt P55055); experiment: LXR HTR-FRET coactivator (b-SRC1) recruitment assay, LXRβ; type: biochemical; conditions: FRET 12-point dose response, GST-LXR LBD
Description: (§1) The LXR assay is configured using time-resolved fluorescence resonance energy transfer technology (HTR-FRET) (see Albers et al., J. Biol. Chem. 2006 24; 281(8) 4920-30; Chin J, Assay Drug Dev. Technol. 2003 1(6):777-87).
(§2) In the presence of an agonist, a fusion protein of glutathione S-transferase (GST) and LXR ligand binding domain (GST-LXR LBD) associates with a biotin-labeled nuclear receptor coactivator (b-SRC1). A fluorescent signal is detected in the presence of Eu-labeled anti GST antibodies and streptavidin-labeled allophycocyanin (APC). FRET is made possible by agonist-dependent close interaction of the test proteins.
(§3) Compounds which act as agonists at the LXR ligand binding domain were detected by an increase in time-resolved fluorescence. This LXR-FRET was performed as described by Albers et al. (loc. cit.).
(§4) FRET-active compounds were assayed in a FRET 12-point dose response experiment to determine the EC50—values of the compounds mentioned in the following Table 5.

[2] = target: LXRα (Homo sapiens, UniProt Q13133); experiment: LXR HTR-FRET coactivator (b-SRC1) recruitment assay, LXRα; type: biochemical; conditions: FRET 12-point dose response, GST-LXR LBD
Chain of LXRα (Q13133 209-447 limits assumed): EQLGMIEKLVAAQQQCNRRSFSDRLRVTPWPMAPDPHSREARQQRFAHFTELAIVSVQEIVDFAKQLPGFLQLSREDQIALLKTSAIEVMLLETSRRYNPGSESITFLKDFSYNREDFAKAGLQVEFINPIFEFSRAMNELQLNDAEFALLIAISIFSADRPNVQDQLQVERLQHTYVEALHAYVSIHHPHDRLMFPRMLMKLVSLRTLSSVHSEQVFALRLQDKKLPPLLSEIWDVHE
Chain of LXRα (Q15788 whole entry partner, the tested form may be a part): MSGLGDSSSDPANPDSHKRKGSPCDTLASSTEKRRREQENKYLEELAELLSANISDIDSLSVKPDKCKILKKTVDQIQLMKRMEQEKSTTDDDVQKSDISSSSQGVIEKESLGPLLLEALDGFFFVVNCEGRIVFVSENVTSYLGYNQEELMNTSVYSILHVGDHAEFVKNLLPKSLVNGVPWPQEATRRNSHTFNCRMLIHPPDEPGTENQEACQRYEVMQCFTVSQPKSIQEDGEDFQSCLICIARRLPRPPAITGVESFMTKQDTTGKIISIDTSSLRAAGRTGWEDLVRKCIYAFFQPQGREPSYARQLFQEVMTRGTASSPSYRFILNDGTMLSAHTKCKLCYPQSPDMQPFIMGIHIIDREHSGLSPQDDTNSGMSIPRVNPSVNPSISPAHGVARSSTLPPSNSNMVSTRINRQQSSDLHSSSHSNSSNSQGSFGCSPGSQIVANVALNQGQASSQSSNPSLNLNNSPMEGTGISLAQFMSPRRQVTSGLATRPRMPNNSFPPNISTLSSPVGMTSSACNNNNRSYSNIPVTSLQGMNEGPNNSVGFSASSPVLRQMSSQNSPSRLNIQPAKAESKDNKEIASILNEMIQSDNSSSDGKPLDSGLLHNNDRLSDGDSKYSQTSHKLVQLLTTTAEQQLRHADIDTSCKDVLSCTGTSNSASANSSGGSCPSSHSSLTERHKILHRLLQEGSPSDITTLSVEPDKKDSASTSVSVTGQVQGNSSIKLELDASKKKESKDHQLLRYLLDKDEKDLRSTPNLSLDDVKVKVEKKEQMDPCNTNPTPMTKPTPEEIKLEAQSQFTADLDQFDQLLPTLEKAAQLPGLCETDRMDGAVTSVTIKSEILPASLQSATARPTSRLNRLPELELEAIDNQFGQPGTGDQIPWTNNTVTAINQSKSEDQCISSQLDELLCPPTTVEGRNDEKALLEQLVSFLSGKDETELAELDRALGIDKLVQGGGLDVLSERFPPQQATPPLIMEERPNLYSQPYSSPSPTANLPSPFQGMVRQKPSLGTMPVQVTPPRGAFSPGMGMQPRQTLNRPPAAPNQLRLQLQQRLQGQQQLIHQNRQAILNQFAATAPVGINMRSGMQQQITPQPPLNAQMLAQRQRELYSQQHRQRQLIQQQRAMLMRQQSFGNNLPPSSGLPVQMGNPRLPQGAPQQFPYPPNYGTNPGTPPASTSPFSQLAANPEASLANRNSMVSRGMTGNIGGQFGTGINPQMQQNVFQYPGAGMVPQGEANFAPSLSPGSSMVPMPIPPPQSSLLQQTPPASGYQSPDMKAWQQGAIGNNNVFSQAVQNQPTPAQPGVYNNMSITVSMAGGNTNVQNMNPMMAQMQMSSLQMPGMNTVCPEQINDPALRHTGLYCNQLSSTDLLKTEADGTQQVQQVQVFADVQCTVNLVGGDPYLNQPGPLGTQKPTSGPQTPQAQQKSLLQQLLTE
Description: as §1, §2, §3, §4

[3] = test system: female APOE*3-Leiden(E3L).CETP transgenic mice; experiment: Pooled lipoprotein profiles (FPLC) in APOE*3Leiden.CETP mice; type: in vivo; conditions: after 5 weeks of treatment, pooled plasma per group
[4] = test system: female APOE*3-Leiden(E3L).CETP transgenic mice; experiment: Plasma lipids in APOE*3Leiden.CETP transgenic mice on Western-type diet; type: in vivo; conditions: for Plasma cholesterol: mean ± SD of 10 mice
Description: The aim of the study was to evaluate the effects of extract IMD-XT0022 (see example 1c) on plasma lipids in female APOE*3-Leiden(E3L).CETP transgenic mice (hereinafter referred to as APOE*3Leiden mice). The effects were compared with phytosterol as a positive control.
Forty female APOE*3Leiden mice (from the specific pathogen free breeding stock at TNO-Metabolic Health Research, Leiden, Netherlands), 15-16 weeks of age at the start of the experiment were housed during the experiment in Macrolon® cages (maximally 5 animals per cage) in clean-conventional animal rooms (relative humidity 50-60%, temperature about 21° C., light cycle 7 am to 7 pm). Individual mice were marked by ear-punch holes and supplied with food and acidified tap water ad libitum. Dietary ingredients were provided by Hope Farms (Woerden, the Netherlands): The mice received a semi-synthetic modified Western-type diet (WTD) as described by Nishina et al., J. Lipid. Res. 1990:31:859, containing cholesterol (0.1% w/w, final concentration) and saturated fat (15% w/w cacao butter). The animals were put on a Western-type diet with 0.1% cholesterol for 4 weeks (run-in period). After the run-in period, APOE*3Leiden mice were sub-divided into three groups of 10 mice each and treated during 5 weeks with the following compounds: Control group (vehicle gavage, Western-type diet without diet additions), extract group (Western-type diet without diet additions, 100 mg/kg/d extract IMD-XT0022 via daily gavage) or phytosterol group (vehicle gavage, Western-type diet with addition of 1 wt. % of free phytosterol). One week before first administration of IMD-XT0022 mice were gavaged with vehicle to get used to the procedure. Food intake and body weight were measured weekly during the treatment period (t=0, 1, 2, 3, 4 and 5 weeks). After two and five weeks of treatment blood samples were taken after a 4 hour fasting period. After 3 weeks of treatment vehicle Delios V oil (a medium-chain triglyceride oil obtained from BASF Personal Care and Nutrition GmbH, Düsseldorf, Germany) was replaced by Polyethylengycol-400 (PEG-400, Sigma-Aldrich, Steinheim, Germany) for all groups.
Extract IMD-XT0022 was administered daily by oral gavage between 8.00 and 11.00 am CET. In the phytosterol group phytosterol was administered orally as admix to the WTD (1% w/w free phytosterol). The control group and the phytosterol group received the vehicle accordingly. The gavage volume during the treatment period was 10 ml/kg and was adjusted weekly based on the measured body weight of the respective week.
Plasma cholesterol, triglycerides and HDL cholesterol were measured individually at t=0, 2 and 5 weeks. On group level ALT, AST levels and lipoprotein profiles (at t=0 and 5 weeks) were measured. Feces were collected (per cage) during week 5.
On the mornings of the blood sampling time points of t=weeks 2 and t=5 weeks, gavages were not performed between 8.00-11.00 am, but were performed after the blood sampling. At t=5 weeks, 3 days after the last blood sampling, mice were sacrificed after a 4 hour fasting period (and without giving a gavage on the day of sacrifice) by CO2 suffocation. EDTA-plasma was collected via heart puncture and stored at <−70° C. and several organs were collected.
After a 4 weeks run-in period, 10 low-responder mice were removed from the study. The remaining 30 mice where subdivided into 3 groups of 10 mice each, matched for body weight, plasma cholesterol, triglycerides, HDL-cholesterol and age (t=0) […]

[5] = test system: liver cancer cell lines; conditions: cited from earlier work
[6] = test system: lung cancer cells; conditions: cited from earlier work

Chain of LXRβ (P55055 222-460 limits assumed): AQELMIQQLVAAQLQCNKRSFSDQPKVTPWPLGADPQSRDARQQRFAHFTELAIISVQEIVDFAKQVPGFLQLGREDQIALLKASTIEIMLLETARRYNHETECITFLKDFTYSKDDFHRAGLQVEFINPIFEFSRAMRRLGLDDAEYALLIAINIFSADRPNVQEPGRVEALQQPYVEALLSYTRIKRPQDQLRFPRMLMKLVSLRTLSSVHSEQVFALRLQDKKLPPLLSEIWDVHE
Chain of LXRβ (Q15788 whole entry partner, the tested form may be a part): as the sequence (Q15788 whole entry partner, the tested form may be a part) above

Molecule | EC50 [1] [µM] | EC50 [2] [µM] | other results
C[C@H]1[C@@H](O)[C@]2(OC1(C)C)O[C@]13CC[C@H]([C@@H]2C)[C@@]1(C)CC=C1C3=CC(=O)C2=CC(=O)CC[C@@]21C [Compound 5, (14β,22S,23R)-14,22:22,25-Diepoxy-23-hydroxy-ergosta-4,7,9-triene-3,6-dione] | 24 | 7.6 | –
C[C@H]1[C@H](O)[C@@]2(OC1(C)C)O[C@]13CC[C@H]([C@@H]2C)[C@@]1(C)C=CC1=C3C=CC2=CC(=O)CC[C@@]21C [Compound 6, (14β,22S,23S)-14,22:22,25-Diepoxy-23-hydroxy-ergosta-4,6,8,11-tetraen-3-one] | 14 | 5.5 | –
COc1ccc2c(c1C)CC(=O)[C@]1(C)[C@@H]3CC[C@]21O[C@@]1(OC(C)(C)[C@@H](C)[C@H]1O)[C@H]3C [Compound 8, (2S,3S,3′R,4R,4aR,4′S,10bS)-3′-hydroxy-8-methoxy-3,4a,4′,5′,5′,7-hexamethyl-4,4a,4′,5′-tetrahydro-3H,3′H-spiro[4,10b-ethanobenzo[h]chromene-2,2′-furan]-5(6H)-one] | 31 | 24 | –
Cc1c(O)ccc2c1C=C[C@]1(C)[C@@H]3CC[C@]21O[C@@]1(OC(C)(C)[C@@H](C)[C@H]1O)[C@H]3C [Compound 2, (2S,3S,3′R,4R,4′S,4aR,10bR)-4,4′,4a,5′-tetrahydro-3,4′,4a,5′,5′,7-hexamethyl-spiro[4,10b-ethano-10bH-naphtho[1,2-b]pyran-2(3H),2′(3′H)-furan]-3′,8-diol] | 5.5 | 1.1 | –
phytosterol | – | – | Decrease in the area under the curve of the VLDL peak, cholesterol [3]: 25%; Decrease in the area under the curve of the VLDL peak, phospholipid [3]: 21%; Decrease of plasma cholesterol as compared to the control group ([4]; after 5 weeks of treatment): 16%; Decrease of plasma triglycerides as compared to the control group ([4]; after 5 weeks of treatment): 36%; Plasma HDL, effect as compared to the control group ([4]; mouse, in vivo): not affected; Plasma cholesterol ([4]; t = 0 weeks (after run-in, before treatment)): 10.9 ± 1.6 mM; Plasma cholesterol ([4]; t = 2 weeks of treatment, extract 100 mg/kg/d gavage, phytosterol 1 wt.% in diet): 9.4 ± 1.3 mM; Plasma cholesterol ([4]; t = 5 weeks of treatment, extract 100 mg/kg/d gavage, phytosterol 1 wt.% in diet): 8.1 ± 1.8 mM
C[C@H]1[C@@H](O)[C@@]2(OC1(C)C)O[C@]13CC[C@H]([C@@H]2C)[C@@]1(C)[C@H](O)C=C1C3=CC(=O)C2=CC(=O)CC[C@@]21C [Compound 9, (1R,2S,2′S,3′R,4aS,4′S,10aR,12R,12aS)-3′,12-dihydroxy-2,4′,5′,5′,10a,12a-hexamethyl-4′,5′,10,10a,12,12a-hexahydro-1H,3′H-spiro[1,4a-ethanonaphtho[1,2-h]chromene-3,2′-furan]-6,8(2H,9H)-dione] | 4.6 | 1 | –
COc1ccc2c(c1CO)C=C[C@]1(C)[C@@H]3CC[C@]21O[C@@]1(OC(C)(C)[C@@H](C)[C@H]1O)[C@H]3C [Compound 3, (2S,3S,3′R,4R,4′S,4aR,10bR)-4,4′,4a,5′-Tetrahydro-3′-hydroxy-8-methoxy-3,4′,4a,5′,5′-pentamethyl-spiro[4,10b-ethano-10bH-naphtho[1,2-b]pyran-2(3H),2′(3′H)-furan]-7-methanol] | 24 | 11 | –
COc1ccc2c(c1C)CC[C@]1(C)[C@@H]3CC[C@]21O[C@@]1(OC(C)(C)[C@@H](C)[C@H]1O)[C@H]3C [Compound 14, (2S,3S,3′R,4R,4aR,4′S,10bR)-8-methoxy-3,4a,4′,5′,5′,7-hexamethyl-4,4a,4′,5,5′,6-hexahydro-3H,3′H-spiro[4,10b-ethanobenzo[h]chromene-2,2′-furan]-3′-ol] | – | – | Biological activities against liver cancer cell lines [5]: confirmed the biological activities
COc1ccc2c(c1C)C=C[C@]1(C)[C@@H]3CC[C@]21O[C@@]1(OC(C)(C)[C@@H](C)[C@H]1O)[C@H]3C [Compound 1, (2S,3S,3′R,4R,4′S,4aR,10bR)-4,4′,4a,5′-Tetrahydro-8-methoxy-3,4′,4a,5′,5′,7-hexamethyl-spiro[4,10b-ethano-10bH-naphtho[1,2-b]pyran-2(3H),2′(3′H)-furan]-3′-ol] | 25 | 1.4 | Biological activities against liver cancer cell lines [5]: confirmed the biological activities
COc1ccc2c(c1C)C=C[C@@]1(C)[C@]23CC[C@]1(O)[C@H](C)[C@]1(OC(C)(C)[C@@H](C)[C@H]1O)O3 [Compound 7, (2S,3S,3′R,4R,4′S,4aR,10bR)-4,4′,4a,5′-Tetrahydro-17-hydroxy-8-methoxy-3,4′,4a,5′,5′,7-hexamethyl-spiro[4,10b-ethano-10bH-naphtho[1,2-b]pyran-2(3H),2′(3′H)-furan]-3′-ol] | 34 | 31 | –
CO[C@@H]1C=C2C3CC[C@H](C(C)/C=C/C(C)C(C)C)[C@@]3(C)CC[C@@H]2[C@@]2(C)CC[C@H](O)C[C@]12O (stereo partly drawn) [blazein] | – | – | Apoptosis in lung cancer cells [6]: induced apoptosis

— US9453016B2, “Terpenoid spiro ketal compounds with LXR agonists activity, their use and formulations with them” (priority 2010, dated 2016)
